Columns and labels:
[1] = Surface plasmon resonance (SPR) binding of CTR-RELN peptides to heparin-coated chip
Protocol: Surface plasmon resonance assay (SPR) was used for performing binding kinetics using a Biacore 3000 Instrument (GE Healthcare) at 25° C. following previously published protocols (7 24) as fee-for-service by Precision Antibody (Maryland, USA). Biotin-labeled heparin (B9806, Sigma Aldrich) was covalently linked to streptavidin-coated chip and unoccupied sites were blocked with biocytin. Antigen was flowed over the chip using a range of single analyte concentrations prepared in DPBS buffer and using a flow rate of 30 μL/min. Binding of antigen to the ligand was monitored in real time to obtain on (ka) and off (kd) rates. The equilibrium constant (KD) was calculated from the observed ka and kd. Accuracy of the SPR analysis was determined via Chi square (χ2) analysis as described in the statistical analysis section. We included in the analyses the WT and H3447R peptides and peptides with the hypothetical H3447D change ([…])(SEQ ID NO:57) and the H3447K change ([…])(SEQ ID NO:58), also produced and purified by Innovagen (Sweden).
Surface plasmon resonance assay (SPR) was used for performing binding kinetics using a Biacore 3000 Instrument (GE Healthcare) at 25° C. following previously published protocols 34 24 fee-for-service by Precision Antibody (Maryland, USA). Heparin was covalently linked to streptavidin coated chip at 13 response units (RU) concentration and unoccupied sites were blocked with biocytin. Antigen was flowed over the chip using a range of single analyte concentrations prepared in DPBS buffer and using a flow rate of 30 μL/min. Binding of antigen to the ligand was monitored in real time to obtain on (ka) and off (kd) rates. The equilibrium constant (KD) was calculated from the observed ka and kd. Accuracy of the SPR analysis was determined via Chi square (2) analysis as described in the statistical analysis section.

VLDLr = target: T1, VLDLr (Homo sapiens, UniProt P98155); experiment: ELISA cell-free binding of RELN variants to VLDLr
T1 construct: purchased R&D 8444-VL
Protocol: Enzyme-linked immunosorbent assay (ELISA) was used to quantify changes in binding of RELN variants (media-derived full-length or CTR-RELN) to either VLDLr or ApoEr2 following an optimized version of a previously published protocol (6). Briefly, ELISA strips (DY008, R&D Systems) were coated with one ng/μL (100 μL/well) of VLDLr (8444-VL, R&D) or ApoEr2 (TP320903, OnGene) receptors diluted in 25 mM Tris HCl, 140 mM NaCl, […], two mM CaCl2), pH 7.4 (TBS-C buffer). After 18 h at four ° C. incubation, plates were blocked one h with three % BSA (22070008-6, Bioworld), 0.05% Tween-20 (Sigma Aldrich) TBS-C buffer. We assessed binding via incubation with 100 μL/well of serial dilutions of recombinant RELN protein (Ser1221-Gln2666, 8546-MR-050, R&D) or RELN variants in TBS-C buffer for one hour at room temperature. For detection, we used goat anti-mouse RELN primary antibody (LS-C793521-100, LS-Bio, 1:2,000, 100 μL/well) as primary antibody for one h at R.T. and (1:10,000; 100 μL/well, donkey anti-goat IgG H&L, HRP, ab6885, Abcam) as secondary antibody for 30 min. at R.T. Between each of the previous steps, plates were washed four times with TBS-C buffer (200 μL/well). Plates were washed three times prior to initiating the colorimetric reaction (DY008, R&D Systems). Stop solution (50 μL/well, DY008, R&D Systems) was added upon five min. incubation and the absorbance of the samples was measured at 450 nm using the Synergy 2 microplate reader (BioTek Instruments). Processing and analysis of the data was done using Gen5 1.11 software and GraphPad Prism, respectively.

NRP1 = target: T2, NRP1 (Homo sapiens, UniProt O14786); experiment: Bio-layer interferometry (BLI) of CTR-RELN-NRP-1 interactions; assay type: binding; conditions: Fc-fusion peptides
T2 construct: purchased R&D 3870-N1-025
T2 sequence (O14786 22-644 isoform O14786-2 limits assumed): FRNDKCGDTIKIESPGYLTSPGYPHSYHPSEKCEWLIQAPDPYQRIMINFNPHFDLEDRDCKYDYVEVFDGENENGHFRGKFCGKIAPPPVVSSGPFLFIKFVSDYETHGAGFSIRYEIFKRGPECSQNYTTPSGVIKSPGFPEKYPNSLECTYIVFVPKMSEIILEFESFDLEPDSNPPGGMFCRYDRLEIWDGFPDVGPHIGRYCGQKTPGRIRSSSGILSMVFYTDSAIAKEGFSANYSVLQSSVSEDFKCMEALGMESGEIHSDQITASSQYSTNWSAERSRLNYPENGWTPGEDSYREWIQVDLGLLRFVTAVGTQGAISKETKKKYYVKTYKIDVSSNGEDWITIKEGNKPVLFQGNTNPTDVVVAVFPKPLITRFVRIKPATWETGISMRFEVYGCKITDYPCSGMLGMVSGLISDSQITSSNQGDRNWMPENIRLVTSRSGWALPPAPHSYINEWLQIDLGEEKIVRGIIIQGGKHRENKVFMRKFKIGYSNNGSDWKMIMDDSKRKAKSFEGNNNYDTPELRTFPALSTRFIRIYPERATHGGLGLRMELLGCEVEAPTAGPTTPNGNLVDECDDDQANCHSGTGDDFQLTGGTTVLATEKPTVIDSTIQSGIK
Protocol: Bio-layer interferometry (BLI) was additionally used to assess NRP1-protein kinetics at 30° C. and 1000 rpm agitation. 1 mg/mL NRP1 (R&D 3870-N1-025) was biotinylated at a 1:2 molar ratio, desalted, and immobilized on the SA biosensor tip (Pall ForteBio) surface. This was followed by 1) 180 seconds baseline buffer diluent, 2) loading of the ligand (NRP1), 3) 180 seconds baseline buffer diluent, 4) 240 seconds association (analyte), and 5) 300 seconds disassociation in assay buffer. Assay buffer: SD Buffer (pH7.4 PBS, 0.05% tween20, 0.01% BSA).
The experimental data were fit with the 1:1 binding model and analyzed with global fitting using Octet Data Analysis software to calculate KD.
Bio-layer interferometry (BLI) was used to assess NRP1-protein kinetics at 30° C. and 1000 rpm agitation using previously published methods. 1 mg/mL NRP1 (R&D 3870-N1-025) was biotinylated at a 1:2 molar ratio, desalted, and immobilized on the SA biosensor tip (Pall ForteBio) surface. This was followed by 1) 180 seconds baseline buffer diluent, 2) loading of the ligand (NRP1), 3) 180 seconds baseline buffer diluent, 4) 240 seconds association (analyte), and 5) 300 seconds disassociation in assay buffer. Assay buffer: SD Buffer (pH7.4 PBS, 0.05% tween20, 0.01% BSA).

With “RKQNYMMNFSRQHGLRRFYNRRRRSLRRYP [CTR-RELN H3447R]” as the sequence, how does the “heparin affinity/interaction relative to WT, in words” value ([1]; SPR kinetic constants) read?
Its value is “about twice”.

What about the “interaction/affinity with heparin relative to WT” value ([1]; SPR, kinetic data, vs RELN WT peptide) of the same sequence?
The value was about 2 fold.

And the “binding to VLDLr” value (VLDLr)?
Its value is “unable to bind directly”.

What about the “affinity for NRP1 relative to WT” value (NRP1) of the same sequence?
The value was 10 fold.

Source: patent US20260139017A1, “COMPOSITIONS AND METHODS USING REELIN IN ALZHEIMER'S DISEASE” (The General Hospital Corporation, priority 2022, published 2026)
